“Also recorded” adds a separate entry of the source.
Legend:
NGF = NGF content in organ homogenates of orally treated mice by ELISA using anti-NGF; format: in vivo, Balb/c male mice; settings: oral 100 μg/mouse for 7 days
Experimental: One year old Balb/c male mice (considered to be retired and non-productive) were given Adesh-10 orally for seven consecutive days, and the control set of mice received PBS. Two days after the completion of the treatment, the mice were sacrificed for organs. Organ homogenates were assayed for NGF content by simple enzyme-linked immunosorbent assay (ELISA), using anti-NGF.
Preparation of organ homogenates: Mice were used in compliance with U.S. Public Health Service policy on humane care and use of animals. One-year-old Balb/c male mice were divided into two groups each consisting of five. Mice in group I were given orally 100 μg/mouse in 50 μl volume of Adesh-10, the synthetic analog of NGF for seven consecutive days. The group II mice were given similar volume of PBS. Two days after the completion of the treatment with Adesh-10 or PBS the mice were sacrificed for organs. Organs from five of each group of mice were collected and one type of organ from five were pooled. The pool of the organs was homogenized in PBS by manual homogenizer. The homogenates were centrifuged and the supernatants for each pool organ were separated. Protein concentration for each supernatant was measured on spectrophotometer using a protein kit from Bio-Rad (USA catalogue 500-0006). The protein concentrations of the supernatants were adjusted to 100 μg/ml with PBS, as stocks for further testing.
Enzyme-linked immunosorbent assay (ELISA): ELISA tests were carried out in 96 well microtiter plates. The reagents for ELISA were purchased from Sigma-Aldrich Co. The stocks from mouse organs were diluted with carbonate-bicarbonate buffer of pH 9.4 to 10 μg/ml as coating antigen for ELISA. The wells of the plate were coated with antigen, 100 μl/well. The plate was left at room temperature (RT) overnight, after which it was emptied and washed three times (3×) with PBS. The wells were blocked with 250 μl/well of 3% fish skin gelatin. After 30 min. the plate was emptied and washed 3× with PBS. Anti-NGF made in rabbit was diluted from 1:300 in gelatin. Three wells received 100 μl of each dilution of anti-serum. Two-fold diluted anti-sera were used from 1:300 in triplicate. The antigen controls without antibody were incorporated. The plate was incubated at 37° C. in a humid incubator for 1 hr after which the plate was washed 3× with PBS. The horseradish peroxidase conjugated with rabbit IgG 100 μl/well were reacted, for 30 min. Finally, after washing, the wells of the plate were reacted with O-phenylenediamine-HCl (OPD) for color development. The plate was read after 30 min. and the OD was recorded at […]. The average of triplicate readings was expressed as ELISA titer/100 μl.
One year old Balb/c male mice were used for this research. Ten mice were used consisting of two groups five of each. Mice in group I were given orally 100 μg/mouse in 50 μl volume of Adesh-10, synthetic analog of NGF for seven consecutive days. The group II mice were given similar volume of PBS. Two days after the completion of the treatment the mice were sacrificed for organs. Organ homogenates were assayed for NGF by ELISA.

PC12 cells = assay: Neurite production on PC12 cells; format: cell-based, rat
Experimental: (§1) Adesh-10 (SEQ. ID. NO.: 2) is considered exemplary of the Adesh family of peptides and has been studied and tested to illustrate the invention. Venom derived NGF produced neurites on PC12 cells at 5 ng/ml while the concentration of Adesh-10 required was 1 μg/ml. NGF is toxic to PC 12 cells at the concentration of 5 μg/ml, while Adesh-10 is not toxic up to 100 μg/ml.

PC 12 cells = assay: Toxicity to PC12 cells; format: cell-based, rat
Experimental: as §1

Down syndrome children = assay: Treatment of Down syndrome children; format: in vivo, human; settings: 100 μg/day, orally under the tongue or sub cutaneous injection
Experimental: In Humans: Several Down syndrome children were treated with Adesh-10. Adesh-10 was administered in the amount of 100 μg/day, either orally under the tongue, or by sub cutaneous injection.

[1] = test system: influenza virus A/TAI strain; assay: Kinetics of replication of influenza A/TAI virus in MDCK cells in serum free medium with supplement; format: cell-based; settings: 1 μg/ml trypsin; for A/TA1 virus titer Day 2: 1 μg/ml NGF or 5 μg/ml Adesh-10, day 2; for A/TA1 virus titer Day 4: 1 μg/ml NGF or 5 μg/ml Adesh-10, day 4; for A/TA1 virus titer Day 6: 1 μg/ml NGF or 5 μg/ml Adesh-10, day 6
simian rotavirus (SA11) = assay: Kinetics of replication of SA11 virus in MA104 cells in serum free medium with supplement; format: cell-based; settings: 1 μg/ml trypsin; for SA11 virus titer Day 2: 1 μg/ml NGF or 5 μg/ml Adesh-10, day 2; for SA11 virus titer Day 4: 1 μg/ml NGF or 5 μg/ml Adesh-10, day 4; for SA11 virus titer Day 6: 1 μg/ml NGF or 5 μg/ml Adesh-10, day 6; for SA11 virus titer Day 8: 1 μg/ml NGF or 5 μg/ml Adesh-10, day 8
Alzheimer's patients = settings: oral administration, human clinical trials; cited from earlier work

Molecule | concentration toxic to PC 12 cells (PC 12 cells) | A/TA1 virus titer Day 2 [1] | A/TA1 virus titer Day 4 [1] | A/TA1 virus titer Day 6 [1] | SA11 virus titer Day 2 (simian rotavirus (SA11)) | SA11 virus titer Day 4 (simian rotavirus (SA11)) | SA11 virus titer Day 6 (simian rotavirus (SA11)) | SA11 virus titer Day 8 (simian rotavirus (SA11)) | also measured
N L G E H P V C D S (NLGEHPVCDS; CORRESPONDS TO POSITIONS 1-10 OF SEQ. ID. NO. 1) [Adesh-10] | > 100 µg/mL | 4 Log TCID5/ml | 5.1 Log TCID5/ml | 6.2 Log TCID5/ml | 3 Log TCID50/ml | 6 Log TCID50/ml | 6.5 Log TCID50/ml | 8 Log TCID50/ml | NGF concentration in organ, Treated: Bone (NGF; Bone, one year old male mice, organs 2 days after treatment): 900 ELISA titer/100 μl; NGF concentration in organ, Treated: Brain (NGF; Brain, one year old male mice, organs 2 days after treatment): 2400 ELISA titer/100 μl; NGF concentration in organ, Treated: Heart (NGF; Heart, one year old male mice, organs 2 days after treatment): 2400 ELISA titer/100 μl; NGF concentration in organ, Treated: Kidney (NGF; Kidney, one year old male mice, organs 2 days after treatment): 1800 ELISA titer/100 μl; NGF concentration in organ, Treated: Liver (NGF; Liver, one year old male mice, organs 2 days after treatment): 2400 ELISA titer/100 μl; NGF concentration in organ, Treated: Lung (NGF; Lung, one year old male mice, organs 2 days after treatment): 1800 ELISA titer/100 μl; NGF concentration in organ, Treated: Muscle (NGF; Muscle, one year old male mice, organs 2 days after treatment): 2400 ELISA titer/100 μl; NGF concentration in organ, Treated: Pancreas (NGF; Pancreas, one year old male mice, organs 2 days after treatment): 1200 ELISA titer/100 μl; NGF concentration in organ, Treated: Salivary (NGF; Salivary, one year old male mice, organs 2 days after treatment): 1200 ELISA titer/100 μl; NGF concentration in organ, Treated: Skin (NGF; Skin, one year old male mice, organs 2 days after treatment): 1200 ELISA titer/100 μl; NGF concentration in organ, Treated: Spleen (NGF; Spleen, one year old male mice, organs 2 days after treatment): 1200 ELISA titer/100 μl; NGF concentration in organ, Treated: Testis (NGF; Testis, one year old male mice, organs 2 days after treatment): 1800 ELISA titer/100 μl; increase in NGF level versus control (NGF; brain, muscle and testis): twofold increase; concentration required to produce neurites on PC12 cells (PC12 cells): 1 µg/mL; clinical effect in Down's syndrome children (Down syndrome children): good results; also recorded: improved physical, vocal, learning and memory abilities
O=C(CCn1cnc2c(=O)[nH]cnc21)Nc1ccc(C(=O)[O-])cc1.[K+] [AIT-082] | – | – | – | – | – | – | – | – | efficacy in Alzheimer's patients versus placebo (Alzheimer's patients): no difference between Alzheimer's patients treated with AIT-082 and placebo
Trypsin [reference compound] | – | 5.6 Log TCID5/ml | 6 Log TCID5/ml | 6.5 Log TCID5/ml | 6.5 Log TCID50/ml | 7.2 Log TCID50/ml | 8 Log TCID50/ml | 8.5 Log TCID50/ml | –
NGF (protein) EDHPVHNLGEHSVCDSVSAWVTKTTATDIKGNTVTVMENVNLDNKVYKEYFFETKCKNPNPEPSGCRGIDSSHWNSYCTETDTFIKALTMEGNQASWRFIRIDTACVCVITKKTGN | 5 µg/mL | 5 Log TCID5/ml | 5.5 Log TCID5/ml | 6.1 Log TCID5/ml | 4 Log TCID50/ml | 7 Log TCID50/ml | 7.5 Log TCID50/ml | 8.2 Log TCID50/ml | concentration producing neurites on PC12 cells (PC12 cells): 5 ng/mL
